From ChEMBL document CHEMBL1201862, “PubChem BioAssay data set” (2004)
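Dose response: 5 concentrations. Exposure: 48 h. Format: 96-well plates. Endpoint: linear interpolation; highest concentration if not reached. GI50 is the concentration that inhibits growth by half.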 The source made the active and inactive calls. Cut-off read from the data, not from the text of the source: active = GI50 up to about 1.1 µM and inactive = higher.

Key:
Assay in all cases: DTP human tumour cell line panel, 48 h
[1] = tested on: 786-0
[2] = tested on: HT-29
[3] = tested on: TK-10
[4] = tested on: SK-OV-3
[5] = tested on: HCT-15
[6] = tested on: SNB-75
[7] = tested on: LOX IMVI
[8] = tested on: NCI-H460
[9] = tested on: SF-268
[10] = tested on: M14
[11] = tested on: SN12C
[12] = tested on: ACHN
[13] = tested on: CAKI-1
[14] = tested on: UACC-62
[15] = tested on: SW-620
[16] = tested on: SR
[17] = tested on: PC-3
[18] = tested on: MDA-MB-231
[19] = tested on: SNB-19

| SMILES | GI50 [1] | GI50 [2] | GI50 [3] | GI50 [4] | GI50 [5] | GI50 [6] | GI50 [7] | GI50 [8] | GI50 [9] | GI50 [10] | GI50 [11] | GI50 [12] | GI50 [13] | GI50 [14] | GI50 [15] | GI50 [16] | GI50 [17] | GI50 [18] | GI50 [19] |
| --- | --- | --- | --- | --- | --- | --- | --- | --- | --- | --- | --- | --- | --- | --- | --- | --- | --- | --- | --- |
| C[N+]1=c2c3cccc4cccc(c(=O)n2CC1)c43 | 25.8 µM (inactive) | 16.8 µM (inactive) | 5.82 µM (inactive) | 20.6 µM (inactive) | 22 µM | 21.8 µM (inactive) | 5.81 µM (inactive) | 11.5 µM (inactive) | 12.3 µM (inactive) | 14.9 µM (inactive) | 18.1 µM (inactive) | 12.5 µM (inactive) | 23.1 µM (inactive) | 17.5 µM (inactive) | 11 µM (inactive) | 2.77 µM (inactive) |  |  |  |
| CSCCC(NC(=O)Cc1ccc(C(=O)c2ccccc2)cc1)C(=O)N1CCN(CCCCN2c3ccccc3Sc3cc(N=[N+]=[N-])ccc32)CC1 (stereo unspecified) | > 100 µM (inactive) | > 100 µM (inactive) | > 100 µM (inactive) | > 100 µM (inactive) | > 100 µM |  | > 100 µM (inactive) | > 100 µM (inactive) | > 100 µM (inactive) |  | > 100 µM (inactive) | > 100 µM (inactive) | > 100 µM (inactive) | > 100 µM (inactive) |  |  | 65.9 µM (inactive) | > 100 µM (inactive) |  |
| COc1cc2c3c(c1OC)-c1c(ccc4c1OCO4)CC3(C#N)N(C(=O)c1ccccc1)CC2 (stereo unspecified) | 30.7 µM (inactive) | > 100 µM (inactive) | > 100 µM (inactive) | 50.5 µM (inactive) | 39.7 µM | 21.2 µM (inactive) | 43 µM (inactive) | 98.9 µM (inactive) | 43.2 µM (inactive) | > 100 µM (inactive) | 51.2 µM (inactive) |  | 36.6 µM (inactive) | 42 µM (inactive) | > 100 µM (inactive) | > 100 µM (inactive) |  |  | 61.5 µM (inactive) |
| COc1cc(OC)cc(C(=O)Cc2c(C(=O)c3ccccc3)c3ccccc3n2C(=O)c2ccccc2)c1 | 38.9 µM (inactive) | 22.9 µM (inactive) | 38.5 µM (inactive) | 22.8 µM (inactive) | 31.3 µM | 7.46 µM (inactive) | 31.8 µM (inactive) | 15.5 µM (inactive) | 65.3 µM (inactive) | 32.2 µM (inactive) | 43.8 µM (inactive) | 33 µM (inactive) | 50.5 µM (inactive) | 35.4 µM (inactive) | 37.5 µM (inactive) | 14.2 µM (inactive) |  |  | 11.3 µM (inactive) |
| COc1ccc(C2C(Cl)C(=O)N2NC(=O)Cc2ccccc2)cc1 (stereo unspecified) | > 100 µM (inactive) | > 100 µM (inactive) | > 100 µM (inactive) | > 100 µM (inactive) | > 100 µM | > 100 µM (inactive) | > 100 µM (inactive) | > 100 µM (inactive) | > 100 µM (inactive) | > 100 µM (inactive) | > 100 µM (inactive) | > 100 µM (inactive) | > 100 µM (inactive) | > 100 µM (inactive) | > 100 µM (inactive) | > 100 µM (inactive) |  |  | > 100 µM (inactive) |
| O=C(/C=C/c1cccc([N+](=O)[O-])c1)c1ccc([N+](=O)[O-])cc1 | > 100 µM (inactive) | > 100 µM (inactive) | > 100 µM (inactive) | > 100 µM (inactive) | > 100 µM | > 100 µM (inactive) | > 100 µM (inactive) | > 100 µM (inactive) | > 100 µM (inactive) | > 100 µM (inactive) | > 100 µM (inactive) | > 100 µM (inactive) | > 100 µM (inactive) | > 100 µM (inactive) | > 100 µM (inactive) | > 100 µM (inactive) |  |  | > 100 µM (inactive) |
| N#Cc1ccc(C2OCC3CC=CCC3CO2)cc1 (stereo unspecified) | > 100 µM (inactive) | 44.7 µM (inactive) |  | > 100 µM (inactive) | 61.2 µM | 64.9 µM (inactive) | 94.6 µM (inactive) | 68.7 µM (inactive) | > 100 µM (inactive) | 52.2 µM (inactive) | > 100 µM (inactive) | 93.5 µM (inactive) | > 100 µM (inactive) | 80.7 µM (inactive) | > 100 µM (inactive) | 36.1 µM (inactive) |  |  | > 100 µM (inactive) |
| O=C(COc1ccc(Cl)cc1)N1N=C(c2ccc(Cl)cc2)CC1(O)c1ccccc1 (stereo unspecified) | 14.5 µM (inactive) | 12.9 µM (inactive) | 26.7 µM (inactive) | 19.5 µM (inactive) | 13.1 µM | 29.9 µM (inactive) | 12.6 µM (inactive) | 15.2 µM (inactive) | > 43.9 µM (inactive) | 18.1 µM (inactive) | 5 µM (inactive) | 9.04 µM (inactive) | 20.9 µM (inactive) | 15.9 µM (inactive) | 21.2 µM (inactive) | 3.69 µM (inactive) |  |  | 20.3 µM (inactive) |
| N#CC(N)(C(=O)C(=O)NCCCNC(=O)C(=O)C(N)(C#N)c1ccc(Cl)cc1)c1ccc(Cl)cc1 (stereo unspecified) | > 100 µM (inactive) | > 100 µM (inactive) | > 100 µM (inactive) | > 100 µM (inactive) | > 100 µM | > 100 µM (inactive) | > 100 µM (inactive) | > 100 µM (inactive) | > 100 µM (inactive) | > 100 µM (inactive) | > 100 µM (inactive) | > 100 µM (inactive) | > 100 µM (inactive) | > 100 µM (inactive) | > 100 µM (inactive) | > 100 µM (inactive) |  |  | > 100 µM (inactive) |
| COc1ccccc1NC(=O)CC(=O)n1nc(-c2ccccc2)c(/N=N/c2ccccc2[N+](=O)[O-])c1-c1ccccc1 | > 100 µM (inactive) | 25.2 µM (inactive) | > 100 µM (inactive) | > 100 µM (inactive) |  | 17.8 µM (inactive) | > 100 µM (inactive) | > 100 µM (inactive) | 95.3 µM (inactive) | > 100 µM (inactive) | > 100 µM (inactive) | 32.2 µM (inactive) | > 100 µM (inactive) | > 100 µM (inactive) | > 100 µM (inactive) | > 100 µM (inactive) |  |  | > 100 µM (inactive) |
| CCOc1ccc(/N=N/c2c(-c3ccccc3)nn(C(=O)CC(=O)Nc3cccc(C)c3)c2-c2ccccc2)cc1 | > 100 µM (inactive) | 22 µM (inactive) | > 100 µM (inactive) | > 100 µM (inactive) |  | 27.9 µM (inactive) | > 100 µM (inactive) | > 100 µM (inactive) | 39 µM (inactive) | > 100 µM (inactive) | > 100 µM (inactive) | 38.5 µM (inactive) | > 100 µM (inactive) | > 100 µM (inactive) | > 100 µM (inactive) | > 100 µM (inactive) |  |  | > 100 µM (inactive) |
| NS(=O)(=O)c1ccc(NC(=O)COC(=O)c2cccc3c(=O)c4ccccc4[nH]c23)cc1 | 19.2 µM (inactive) | > 100 µM (inactive) | 24.7 µM (inactive) | 18.9 µM (inactive) | 53.5 µM | 14.4 µM (inactive) | 13.6 µM (inactive) | 33.8 µM (inactive) | 15.9 µM (inactive) | 61.4 µM (inactive) | 24 µM (inactive) | 26.5 µM (inactive) | > 52.5 µM (inactive) | 14.6 µM (inactive) | 52.7 µM (inactive) | 4.03 µM (inactive) |  |  | 17 µM (inactive) |
| O=C1C=CC(=O)N1Nc1ccc([N+](=O)[O-])cc1[N+](=O)[O-] | > 70.1 µM (inactive) | > 71.4 µM (inactive) | > 100 µM (inactive) | > 100 µM (inactive) | > 74.1 µM | > 100 µM (inactive) | > 100 µM (inactive) | > 100 µM (inactive) | > 100 µM (inactive) | 19.9 µM (inactive) | > 100 µM (inactive) | > 100 µM (inactive) | > 47.9 µM (inactive) | > 100 µM (inactive) | > 67.3 µM (inactive) | > 38.5 µM (inactive) |  |  | > 100 µM (inactive) |
| C[P+](C)(C)C | > 100 µM (inactive) | > 100 µM (inactive) | > 100 µM (inactive) | > 100 µM (inactive) | > 100 µM | > 100 µM (inactive) | > 100 µM (inactive) | > 100 µM (inactive) | > 100 µM (inactive) | > 100 µM (inactive) | > 100 µM (inactive) | > 100 µM (inactive) | > 100 µM (inactive) | > 100 µM (inactive) | > 100 µM (inactive) | > 100 µM (inactive) |  |  | > 100 µM (inactive) |
| C1CCN(c2nsc(N3CCCCC3)n2)CC1 | > 100 µM (inactive) | > 100 µM (inactive) | > 100 µM (inactive) | > 100 µM (inactive) | > 100 µM | > 100 µM (inactive) | > 100 µM (inactive) | > 100 µM (inactive) | > 100 µM (inactive) | > 100 µM (inactive) | > 100 µM (inactive) | > 100 µM (inactive) | > 100 µM (inactive) | > 100 µM (inactive) | > 100 µM (inactive) | > 100 µM (inactive) |  |  | > 100 µM (inactive) |
| Nc1nc(-c2ccccc2)cc(-c2cc(Cl)ccc2O)n1 | 55 µM (inactive) | > 100 µM (inactive) | 54.2 µM (inactive) | 34.2 µM (inactive) | > 100 µM | 28.7 µM (inactive) | 54 µM (inactive) | 43.9 µM (inactive) | 49.4 µM (inactive) | > 100 µM (inactive) | > 100 µM (inactive) | 25.6 µM (inactive) | 74.5 µM (inactive) | > 100 µM (inactive) | > 100 µM (inactive) | > 100 µM (inactive) |  |  | 53.8 µM (inactive) |
| Clc1ccc2c(c1)[nH]c1c2nc2sccn21 | > 100 µM (inactive) | > 100 µM (inactive) | > 100 µM (inactive) | > 100 µM (inactive) | > 100 µM | 28.6 µM (inactive) | > 100 µM (inactive) | > 100 µM (inactive) | > 100 µM (inactive) | > 100 µM (inactive) | > 100 µM (inactive) | > 100 µM (inactive) | > 100 µM (inactive) | > 100 µM (inactive) | > 100 µM (inactive) | > 100 µM (inactive) |  |  | > 100 µM (inactive) |
